# Entries after “also recorded” stand apart in the source; their conditions may differ. Where no end group is shown, it is not given here.
# How the values were obtained:
# [1] = system: hino-rescued yeast; test: Sensitivity of hinokitiol-rescued yeast to chemical inhibitors; assay type: cell-based, S. cerevisiae; settings: ebselen: Pma1; bafilomycin: V-ATPase; caspofungin: off-pathway cell wall biosynthesis
# [2] = system: DMT1-deficient Caco-2 epithelia monolayers; test: 55Fe uptake and transepithelial transport in DMT1-deficient Caco-2 monolayers; settings: for 55Fe uptake into cells / transepithelial 55Fe transport: shDMT1 monolayers, apical addition
# Excerpt: (§1) In normal epithelia, iron brought into the cell via apical DMT1 transporters is stored in cytosolic ferritin clusters and directionally exported through the basolateral membrane by FPN1. Transepithelial iron flux via this network of proteins is regulated by the iron response element which is sensitive to intracellular iron concentrations.
# [3] = system: DMT1-deficient Belgrade (b/b) rats; test: Chronic exposure of Belgrade (b/b) rats in rat chow: hematocrit; assay type: in vivo; settings: for hematocrit after one month of treatment: 0.2% in rat chow (˜100 mg/kg/day)
# Excerpt: (§2) Belgrade (b/b) rats (FIG. 3, panel (A)) are the leading model of the disease and display severe hematological defects such as decreased hematocrit values amongst other markers.
# [4] = system: Mitoferrin-deficient MEL cell lines; test: Hemoglobinization and 55Fe use in mitoferrin-deficient MEL cells; assay type: cell-based, murine; settings: for hemoglobinization: conditions identical to DMT1-deficient cells
# [5] = system: Reticulocytes isolated ex vivo from DMT1-deficient Belgrade (b/b) rats; test: 59Fe incorporation into heme in reticulocytes isolated ex vivo; settings: for 59Fe incorporation into heme: plasma spiked with 59Fe-transferrin, b/b reticulocytes
# Procedure: The capacity for hinokitiol to restore hemoglobinization in DMT1-deficient erythroid progenitors was evaluated. Reticulocytes isolated ex vivo from DMT1-deficient Belgrade (b/b) and healthy (+/b) rats were incubated in plasma spiked with ^59Fe-transferrin to assess hinokitiol's ability to promote iron utilization.
# The use of these MEL cells allowed us to test the hypothesis that hinokitiol autonomously transports iron down pre-existing concentration gradients. To do this, we utilized live cell fluorescence imaging with iron-specific dyes to visualize intracellular iron distribution.
# [6] = Iron binding (UV trace after addition of iron); assay type: physicochemical
# Excerpt: (§3) FIG. 5 illustrates the biophysical characterization of hinokitiol.
# [7] = Release of iron from POPC liposomes
# Excerpt: as §3
# [8] = system: DMT1-deficient MEL cells; test: Differentiation / hemoglobinization of DMT1-deficient MEL cells (o-dianisidine staining); settings: for differentiation (staining of hemoglobinized cells with o-dianisidine): 2% DMSO induction
# Excerpt: To gain a better fundamental understanding of this phenomenon, DS19 murine erythroleukemia (MEL) cells were used. These terminally differentiate toward developing erythrocytes after induction with 2% DMSO leading to increased iron uptake and globin expression. DMT1-deficient cell lines through shRNA knockdown were developed (FIG. 7, panel (B)).
# [9] = system: FPN1; test: 55Fe uptake and transepithelial transport in control Caco-2 monolayers with FPN1 down-regulated by quercetin; assay type: cell-based, human
# Excerpt: as §1
# [10] = Excerpt: as §3
# [11] = system: J774 macrophages; assay type: cell-based
# Procedure: To test the capacity for hinokitiol to restore iron release in FPN1 deficiencies, J774 macrophages were utilized. J774 cells with ^55Fe-transferrin were incubated in the absence or presence of hepcidin. Hepcidin is a key iron regulator, down-regulating FPN1 by promoting its degradation.
# [12] = system: DMT1-deficient MEL cells; test: Live cell fluorescence imaging of intracellular iron distribution with iron-specific dyes; assay type: cell-based, murine
# [13] = system: S. cerevisiae missing the iron transporting complex Fet3Ftr1 (fet3Δftr1Δ); test: Modified functional complementation: growth rescue of iron transporter-deficient yeast; assay type: cell-based
# Procedure: To identify small molecules which perform such transport, a modified functional complementation experiment was performed. […] Growth restoration is not due to generic hormetic effects (FIG. 4, panel (D)) and can be sustained >40 days with continued reliance on hinokitiol (FIG. 4, panel (E)).
# [14] = Toxicity and pharmacokinetic half-life in healthy rats
# Excerpt: as §2
# [15] = Permeability assays; assay type: in vitro ADME; settings: not told
# Excerpt: This was sustained for >2 months.
# [16] = 0.2% of feed, 13 weeks orally; cited from earlier work
# [17] = system: TMEM14CΔ; test: Hemoglobinization in heme biosynthesis-deficient (TMEM14CΔ) cells; assay type: cell-based
# [18] = control monolayers treated with quercetin
molecule,measurement,setting,value
CO/C1=C\C(C)=C\[C@@H](C)[C@@H](O)[C@@H](C)C/C(C)=C/C=C/[C@H](OC)[C@@H]([C@@H](C)[C@@H](O)[C@H](C)[C@@]2(O)C[C@@H](O)[C@H](C)[C@@H](C(C)C)O2)OC1=O [bafilomycin],sensitivity of hino-rescued yeast to chemical inhibition,[1],exceptionally sensitive
"Cc1ncc(CO)c(C=NNC(=O)c2ccncc2)c1O [pyridoxal isonicotinoyl hydrazone, reference compound]",55Fe uptake into cells,[2]; hinokitiol 500 nM,unable to promote uptake or transport
same,transepithelial 55Fe transport,[2]; hinokitiol 500 nM,unable to promote uptake or transport
"CC(C)c1cccc(=O)cc1 [C2deOHino, C2-deoxy hinokitiol]",hematocrit after one month of treatment,[3],low hematocrits normally observed for untreated b/b rats
same,55Fe incorporation into heme,[4],did not produce these effects
same,55Fe uptake,[4],did not produce these effects
same,hemoglobinization,[4],did not produce these effects
same,59Fe incorporation into heme,[5],no apparent effect
same,55Fe uptake into cells,[2]; hinokitiol 500 nM,unable to promote uptake or transport
same,transepithelial 55Fe transport,[2]; hinokitiol 500 nM,unable to promote uptake or transport
same,iron binding,[6],ablated iron binding and transport; also recorded: does not bind or transport iron; also recorded: does not
same,iron transport (release of iron from POPC liposomes),[7],ablated iron binding and transport; also recorded: does not bind or transport iron; also recorded: do not
same,differentiation (staining of hemoglobinized cells with o-dianisidine),"[8]; shDMT1 MEL cells, 72 hours",unable to restore physiology in any case
O=c1c(O)c(-c2ccc(O)c(O)c2)oc2cc(O)cc(O)c12 [quercetin],transepithelial transport after FPN1 down-regulation,[9]; [18],decreased transepithelial transport
same,uptake after FPN1 down-regulation,[9]; [18],without affecting uptake
CC(C)c1cccc([O-])c(=O)c1.CC(C)c1cccc([O-])c(=O)c1.CC(C)c1cccc([O-])c(=O)c1.[Fe+3] [tris(hinacolato) iron (III)],partitioning of iron complex into octanol,[10],predominantly partitions into octanol
same,solubility in hexanes / partitioning into water,[10],soluble in hexanes
"hepcidin: key iron regulator, down-regulating FPN1 by promoting its degradation (DTHFPICIFCCGCCHRSKCGMCCKT; ends and bridges not checked; cysteine pairing not given here; UniProt P81172 60-84, looked up) [reference compound]",iron release after FPN1 down-regulation,"[11]; J774 cells with 55Fe-transferrin, presence of hepcidin",reduced iron release
"Cc1c(O)c(=O)ccn1C [deferiprone, reference compound]",55Fe uptake into cells,[2]; hinokitiol 500 nM,unable to promote uptake or transport
same,transepithelial 55Fe transport,[2]; hinokitiol 500 nM,unable to promote uptake or transport
same,solubility in hexanes / partitioning into water,[10],partition primarily into water
CC[C@H](C)C[C@H](C)CCCCCCCCC(=O)N[C@H]1C[C@@H](O)[C@@H](NCCN)NC(=O)[C@@H]2[C@@H](O)CCN2C(=O)[C@H]([C@H](O)CCN)NC(=O)[C@H]([C@H](O)[C@@H](O)c2ccc(O)cc2)NC(=O)[C@@H]2C[C@@H](O)CN2C(=O)[C@H]([C@@H](C)O)NC1=O [caspofungin],sensitivity of hino-rescued yeast to chemical inhibition,[1],equi-sensitive
"CC(C)c1cccc(=O)c(O)c1 [hinokitiol, 2-hydroxy-6-propan-2-ylcyclohepta-2,4,6-trien-1-one]",cytosolic iron levels (calcein green),[12],increased cytosolic and mitochondrial levels
same,endosomal iron levels (oxyburst green),[12],decreased endosomal iron levels
same,mitochondrial iron levels (RPA),[12],increased cytosolic and mitochondrial levels
same,restoration of transepithelial transport in FPN1 down-regulated monolayers,[9]; quercetin-treated monolayers plus hinokitiol,unable to restore transepithelial transport
same,time over which growth restoration can be sustained,[13]; continued reliance on hinokitiol,> 40 days
same,restoration of cell growth,[13]; fet3Δftr1Δ yeast,restored cell growth
same,growth level relative to wild type,"[13]; hinokitiol-treated fet3Δftr1Δ yeast, liquid media",grow to wild type levels
same,influx of 55Fe into cells,[13]; yeast,restoration of influx of ^55Fe into cells
same,time over which hematocrit restoration was sustained,[3]; 0.2% in rat chow,> 2 months
same,hematocrit after one month of treatment,[3]; 100 mg/kg/day,restored hematocrit to b/b rats to levels that are no longer considered anemic; also recorded: restores hematocrit to non-anemic values
same,hematocrit after four weeks of treatment,"[3]; 0.2% of feed, ˜125 mg/kg each day",significant increases in hematocrit
same,pharmacokinetic half life,[14]; IP injection in F344 rats,reasonable pharmacokinetic half life
same,toxicity in healthy rats,"[14]; rat, in vivo",relatively non-toxic
same,oral bioavailability in vivo suggested by permeability assays,[15],good oral bioavailability
same,55Fe incorporation into heme,[4],increases in ^55Fe uptake and incorporation into heme
same,55Fe uptake,[4],increases in ^55Fe uptake and incorporation into heme
same,hemoglobinization,[4],restored hemoglobinization
same,hemolysis,[5]; at concentrations increasing heme incorporation,did not cause hemolysis
same,59Fe incorporation into heme,[5],increased ^59Fe incorporation into heme in a dose-dependent fashion; also recorded: restored incorporation of ^59Fe into heme
same,DMT1 expression after hinokitiol,[2],independent of DMT1 expression; also recorded: does not induce expression of DMT1
same,55Fe uptake as function of hinokitiol dosage,[2]; DMT1-deficient monolayers,proportional to the hinokitiol dosage
same,transepithelial 55Fe transport at high hinokitiol concentrations,[2]; DMT1-deficient monolayers,reduced when a high intracellular iron concentration is reached
same,basolateral to apical iron transport,[2]; basolateral addition of 55Fe and hinokitiol,failed to promote transport of iron from the basolateral to the apical side
same,monolayer integrity,[2]; hinokitiol 500 nM,without disrupting monolayer integrity
same,55Fe incorporation into ferritin,"[2]; immunoprecipitation of ferritin after apical 55Fe, DMT1-deficient monolayers",restored high incorporation of ^55Fe into ferritin
same,uptake and transport at range of pH,[2]; pHs observed throughout the duodenum,maintained at a range of pHs observed throughout the duodenum
same,55Fe uptake into cells,[2]; hinokitiol 500 nM,restored
same,transepithelial 55Fe transport,[2]; hinokitiol 500 nM,restored
same,lethality,[16],non-lethal
same,iron binding,[6],confirmed; also recorded: binds iron
same,toxicity,[11],without observable toxicity
same,release of intracellular iron,"[11]; J774 cells with 55Fe-transferrin, FPN1 down-regulated with hepcidin",released this intracellular iron back to normal levels in dose-dependent fashion
same,iron transport (release of iron from POPC liposomes),[7],confirmed; also recorded: promotes the release of iron from POPC liposomes
same,hemoglobinization,[17],did not restore hemoglobinization
same,differentiation without DMSO induction,[8]; no DMSO induction,unable to promote differentiation without DMSO induction
same,differentiation (staining of hemoglobinized cells with o-dianisidine),"[8]; shDMT1 MEL cells, 72 hours",restored differentiation
same,toxicity,"[8]; shDMT1 MEL cells, 72 hours",without toxicity

# Reference: US11517540B2, “Restoring physiology in iron-deficient organisms using small molecules” (The Board of Trustees of the University of Illinois, priority 2015, dated 2022)
